Data on twelve compounds can be found in ChEMBL document CHEMBL1123664, “Preparation and antitumor activity of new mitomycin A analogues” (J Med Chem, 1987).

Data set [1] has as its system B16. In words: Antitumor activity against subcutaneously B16 melanoma cells in mice at an optimal dose of 0.4 mg/kg expressed as […] effective dose. Type of data set: functional. As to conditions: Mus musculus, B16, sc, route subcutaneous, read-out: MED.
Data set [2] relates to P388. Nature of the data set: Antitumor activity against intraperitoneally implanted P388 leukemia cells in mice expressed as ratio of median survival time for treated group to that of control group given in equally divided doses on days 1,4 and 7. Type of data set: functional, Mus musculus.
Data set [3] concerns P388. In words: Antitumor activity against intraperitoneally implanted P388 leukemia cells in mice at an optimal dose of 0.2 mg/kg expressed as […] effective dose. Type of data set: functional. The settings on record: Mus musculus, P388, ip, route intraperitoneal, read-out: MED.
Data set [4] concerns P388. Nature of the data set: Antitumor activity against intraperitoneally implanted P388 leukemia cells in mice expressed as ratio of median survival time for treated group to that of control group at an optimal dose of 0.4 mg/kg. It counts as functional, Mus musculus. The settings on record: route intraperitoneal.
Data set [5] relates to P388. In words: Antitumor activity against intraperitoneally implanted P388 leukemia cells in mice at an optimal dose of 0.4 mg/kg expressed as […] effective dose. It counts as functional, Mus musculus. As to conditions: route intraperitoneal; for minimal effective dose at 0.4 mg/kg: Mus musculus, P388, ip, read-out: MED.
For data set [6], the system named is P388. In words: Antitumor activity against intraperitoneally implanted P388 leukemia cells in mice expressed as ratio of median survival time for treated group to that of control group at an optimal dose of 0.2 mg/kg. The settings on record: route intraperitoneal. Type of data set: functional, Mus musculus.
Data set [7] has as its system B16. In words: Antitumor activity against subcutaneously B16 melanoma cells in mice expressed as ratio of median survival time for treated group to that of control group at an optimal dose of 0.4 mg/kg. Type of data set: functional, Mus musculus. As to conditions: route subcutaneous.
Data set [8] has as its system P388. Nature of the data set: Antitumor activity against intraperitoneally implanted P388 leukemia cells in mice at an optimal dose of 0.8 mg/kg gexpressed as […] effective dose. Type of data set: functional. The settings on record: Mus musculus, P388, ip, route intraperitoneal, read-out: MED.
Data set [9] has as its system B16. In words: Antitumor activity against subcutaneously B16 melanoma cells in mice at an optimal dose of 0.8 mg/kg expressed as […] effective dose. It counts as functional, Mus musculus. The settings on record: Mus musculus, B16, sc, route subcutaneous, read-out: MED.
For data set [10], the system named is P388. In words: Antitumor activity against intraperitoneally implanted P388 leukemia cells in mice expressed as ratio of median survival time for treated group to that of control group at an optimal dose of 0.8 mg/kg. It counts as functional, Mus musculus. The settings on record: route intraperitoneal.
Data set [11] concerns B16. Nature of the data set: (§1) Antitumor activity against subcutaneously B16 melanoma cells in mice expressed as ratio of median survival time for treated group to that of control group at an optimal dose of 1-3 mg/kg. It counts as functional, Mus musculus.
The test system of data set [12] is B16. In words: (§2) Antitumor activity against subcutaneously B16 melanoma cells in mice expressed as ratio of median survival time for treated group to that of control group at an optimal dose of 0.6 mg/kg. It counts as functional, Mus musculus. As to conditions: route subcutaneous.
Data set [13] in a line: Partition coefficient (logP). The settings on record: octanol/water. Type of data set: physicochemical.
Data set [14] deals with B16. Nature of the data set: Antitumor activity against subcutaneously B16 melanoma cells in mice at an optimal dose of 0.6 mg/kg expressed as […] effective dose. It counts as functional, Mus musculus. As to conditions: route subcutaneous.
For data set [15], the system named is B16. Described as §2. It counts as functional, Mus musculus. The settings on record: route subcutaneous. The source holds these as a separate data set.
Data set [16] relates to B16. In words: Antitumor activity against subcutaneously B16 melanoma cells in mice expressed as ratio of median survival time for treated group to that of control group at an optimal dose of 0.8 mg/kg. It counts as functional, Mus musculus. As to conditions: route subcutaneous.
For data set [17], the system named is P388. In words: Antitumor activity against intraperitoneally implanted P388 leukemia cells in mice at an optimal dose of 1.6 mg/kg expressed as […] effective dose. It counts as functional. The settings on record: Mus musculus, P388, ip, route intraperitoneal, read-out: MED.
The test system of data set [18] is P388. In words: Antitumor activity against intraperitoneally implanted P388 leukemia cells in mice expressed as ratio of median survival time for treated group to that of control group at an optimal dose of 1.6 mg/kg. It counts as functional, Mus musculus. The settings on record: route intraperitoneal.
In data set [19] the test system is P388. In words: Antitumor activity against intraperitoneally implanted P388 leukemia cells in mice at an optimal dose of 3.2 mg/kg expressed as […] effective dose. Type of data set: functional. The settings on record: Mus musculus, P388, ip, route intraperitoneal, read-out: MED.
Data set [20] has as its system P388. Nature of the data set: Antitumor activity against intraperitoneally implanted P388 leukemia cells in mice expressed as ratio of median survival time for treated group to that of control group at an optimal dose of 3.2 mg/kg. It counts as functional, Mus musculus. As to conditions: route intraperitoneal.
For data set [21], the system named is P388. Nature of the data set: Antitumor activity against intraperitoneally implanted P388 leukemia cells in mice at an optimal dose 0.8 mg/kg expressed as […] effective dose. Type of data set: functional. The settings on record: Mus musculus, P388, ip, route intraperitoneal, read-out: MED.
The test system of data set [22] is P388. Nature of the data set: Antitumor activity against intraperitoneally implanted P388 leukemia cells in mice expressed as ratio of median survival time for treated group to that of control group at an optimal dose 0.8 mg/kg. The settings on record: route intraperitoneal. It counts as functional, Mus musculus.
The subject of data set [23] is B16. Nature of the data set: Antitumor activity against subcutaneously B16 melanoma cells in mice at an optimal dose of 1.6 mg/kg expressed as […] effective dose. Type of data set: functional. The settings on record: Mus musculus, B16, sc, route subcutaneous, read-out: MED.
Data set [24] has as its system B16. Nature of the data set: Antitumor activity against subcutaneously B16 melanoma cells in mice expressed as ratio of median survival time for treated group to that of control group at an optimal dose of 1.6 mg/kg. Type of data set: functional, Mus musculus. The settings on record: route subcutaneous.
Data set [25] deals with B16. Nature of the data set: Antitumor activity against subcutaneously B16 melanoma cells in mice expressed as […] effective dose at an optimal dose of 0.8 mg/kg. Type of data set: functional. As to conditions: Mus musculus, B16, sc, route subcutaneous, read-out: MED.
Data set [26] has as its system B16. Nature of the data set: Antitumor activity against subcutaneously B16 melanoma cells in mice at an optimal dose of 0.2 mg/kg expressed as […] effective dose. It counts as functional. As to conditions: Mus musculus, B16, sc, route subcutaneous, read-out: MED.
Data set [27] relates to B16. In words: Antitumor activity against subcutaneously B16 melanoma cells in mice expressed as ratio of median survival time for treated group to that of control group at an optimal dose of 0.2 mg/kg. Type of data set: functional, Mus musculus. The settings on record: route subcutaneous.
In data set [28] the test system is P388. Nature of the data set: Antitumor activity against intraperitoneally implanted P388 leukemia cells in mice expressed as ratio of median survival time for treated group to that of control group at an optimal dose of 6.4 mg/kg. Type of data set: functional, Mus musculus. The settings on record: route intraperitoneal.
In data set [29] the test system is P388. Nature of the data set: Antitumor activity against intraperitoneally implanted P388 leukemia cells in mice at an optimal dose of 6.4 mg/kg expressed as […] effective dose. As to conditions: Mus musculus, P388, ip, route intraperitoneal, read-out: MED. It counts as functional.
The test system of data set [30] is B16. Described as §1. Type of data set: functional, Mus musculus. The source holds these as a separate data set.

Several values for one entry are separate records, joined by “and”; a condition that tells them apart may be missing. Identical values can stand only once. Where only a bound is given, the exact number is not on record here.

For orientation: T/C means the result in the treated group divided by that in the control group, in per cent. For `CO[C@@]12C(COC(N)=O)C3=C(C(=O)C(C)=C(OCCO)C3=O)N1CC1NC12` (some centres undefined), the minimal effective dose at 0.4 mg/kg in the data set with B16 [1] was 0.2 mg/kg; with P388 [5], 0.0063 mg/kg. Moreover, the T/C in the data set with P388 [2] was 194%; in the data set with P388 [4] (0.4 mg/kg), 178% and >328%; in the data set with P388 [6], 217%; with B16 [7], 178%. For the same compound, in the data set with P388 [3], the minimal effective dose at 0.2 mg/kg is less than 0.1 mg/kg. Moreover, in the data set with P388 [5], the MED turned out to be 0.0063 mg/kg.
One may read the logP as the decadic logarithm of the partition coefficient of the neutral form, usually between octanol and water. A low value points to lower lipophilicity. In the case of `CO[C@@]12C(COC(N)=O)C3=C(C(=O)C(C)=C(OCC4COC(C)(C)O4)C3=O)N1CC1NC12` (some centres undefined), the minimal effective dose at 0.8 mg/kg in the data set on P388 [8] is less than 0.05 mg/kg; in the data set on B16 [9] it was 0.4 mg/kg. The T/C in the data set with P388 [10] was 178%; with B16 [11], 133% and 147% and 170%; in the data set on B16 [12], 221%; in the data set with B16 [15], 240%; in the data set on B16 [16], 198%. In addition, the logP in [13] was 0.82. For the same compound, the MED with B16 [14] was <0.3 mg/kg and 0.1 mg/kg.
On to `CO[C@@]12C(COC(N)=O)C3=C(C(=O)C(C)=C(OCCCO)C3=O)N1CC1NC12` (some centres undefined), for which the minimal effective dose at 1.6 mg/kg with P388 [17] worked out at 0.05 mg/kg. In [13], this compound showed a logP of 0.14. Moreover, in the data set on P388 [18], the T/C stood at 175%.
`CO[C@@]12C(COC(N)=O)C3=C(C(=O)C(C)=C(OCCCCl)C3=O)N1CC1NC12` (some centres undefined) registered a logP in [13] of 1.65. In addition, the minimal effective dose at 3.2 mg/kg in the data set on P388 [19] is 0.2 mg/kg. Besides, the T/C in the data set on P388 [20] is recorded as 150%.
For `CO[C@@]12C(COC(N)=O)C3=C(C(=O)C(C)=C(OCC4CCCCO4)C3=O)N1CC1NC12` (some centres undefined), the log partition coefficient (logP) in data set [13] stood at 1.79. Further, in the data set with P388 [21], the minimal effective dose at 0.8 mg/kg came to 0.1 mg/kg. In addition, the T/C with P388 [22] is recorded as 161%.
As to `COC(COC1=C(C)C(=O)C2=C(C1=O)C(COC(N)=O)[C@@]1(OC)C3NC3CN21)OC` (some centres undefined), the minimal effective dose at 1.6 mg/kg in the data set on P388 [17] is less than 0.025 mg/kg; with B16 [23], 0.4 mg/kg. Besides, the T/C in the data set with P388 [18] amounted to 269%; in the data set with B16 [24] it was 216%.
For the compound `CO[C@@]12C(COC(N)=O)C3=C(C(=O)C(C)=C(OC(C)C)C3=O)N1CC1NC12` (some centres undefined), in data set [13], the log partition coefficient (logP) worked out at 1.26. Also, the T/C in the data set with P388 [20] is listed as 174%.
As for `CO[C@@]12C(COC(N)=O)C3=C(C(=O)C(C)=C(OCCOCCO)C3=O)N1CC1NC12` (some centres undefined), the T/C in the data set with P388 [4] is 210%; in the data set with B16 [16], more than 265%. Also, in the data set with P388 [5], the minimal effective dose at 0.4 mg/kg worked out at 0.1 mg/kg. Also, the minimal effective dose at 0.8 mg/kg with B16 [25] came out at 0.4 mg/kg.
Regarding `CCOC1=C(C)C(=O)C2=C(C1=O)C(COC(N)=O)[C@@]1(OC)C3NC3CN21` (some centres undefined), the minimal effective dose at 0.2 mg/kg in the data set with B16 [26] stood at 0.1 mg/kg. Moreover, the T/C in the data set on B16 [27] was found to be 215%; in the data set with P388 [18], 188%; in the data set with B16 [7], 212%. In addition, the minimal effective dose at 0.4 mg/kg in the data set with B16 [1] was less than 0.4 mg/kg. Moreover, the minimal effective dose at 1.6 mg/kg in the data set on P388 [17] was less than 0.05 mg/kg. In [13], this compound displayed a logP of 0.76.
In the case of `CO[C@@]12C(COC(N)=O)C3=C(C(=O)C(C)=C(OCc4ccco4)C3=O)N1CC1NC12` (some centres undefined), the T/C with P388 [28] was found to be 139%. Also, the logP in data set [13] is 1.6. The minimal effective dose at 6.4 mg/kg in the data set on P388 [29] is 6.4 mg/kg.
As for `CO[C@@]12C(COC(N)=O)C3=C(C(=O)C(C)=C(OCC4CCC4)C3=O)N1CC1NC12` (some centres undefined), in the data set on P388 [17], the minimal effective dose at 1.6 mg/kg was determined as 0.4 mg/kg. Also, the log partition coefficient (logP) in data set [13] was found to be 2.26. In addition, in the data set on P388 [18], the T/C came to 144%.
Regarding `CO[C@@]12C(COC(N)=O)C3=C(C(=O)C(C)=C(OCCSSCCO)C3=O)N1CC1NC12` (some centres undefined), the minimal effective dose at 0.8 mg/kg in the data set on B16 [9] was 0.2 mg/kg. The compound further showed a logP in data set [13] of 1.35. The values for the T/C in the data set with P388 [18], in the data set with B16 [16] and in the data set on B16 [30] were 259%, 243% and 136%, respectively.
